Target: T1, Serine/threonine-protein kinase Nek1 (Homo sapiens, UniProt Q96PY6)
T1 sequence (Q96PY6 whole entry): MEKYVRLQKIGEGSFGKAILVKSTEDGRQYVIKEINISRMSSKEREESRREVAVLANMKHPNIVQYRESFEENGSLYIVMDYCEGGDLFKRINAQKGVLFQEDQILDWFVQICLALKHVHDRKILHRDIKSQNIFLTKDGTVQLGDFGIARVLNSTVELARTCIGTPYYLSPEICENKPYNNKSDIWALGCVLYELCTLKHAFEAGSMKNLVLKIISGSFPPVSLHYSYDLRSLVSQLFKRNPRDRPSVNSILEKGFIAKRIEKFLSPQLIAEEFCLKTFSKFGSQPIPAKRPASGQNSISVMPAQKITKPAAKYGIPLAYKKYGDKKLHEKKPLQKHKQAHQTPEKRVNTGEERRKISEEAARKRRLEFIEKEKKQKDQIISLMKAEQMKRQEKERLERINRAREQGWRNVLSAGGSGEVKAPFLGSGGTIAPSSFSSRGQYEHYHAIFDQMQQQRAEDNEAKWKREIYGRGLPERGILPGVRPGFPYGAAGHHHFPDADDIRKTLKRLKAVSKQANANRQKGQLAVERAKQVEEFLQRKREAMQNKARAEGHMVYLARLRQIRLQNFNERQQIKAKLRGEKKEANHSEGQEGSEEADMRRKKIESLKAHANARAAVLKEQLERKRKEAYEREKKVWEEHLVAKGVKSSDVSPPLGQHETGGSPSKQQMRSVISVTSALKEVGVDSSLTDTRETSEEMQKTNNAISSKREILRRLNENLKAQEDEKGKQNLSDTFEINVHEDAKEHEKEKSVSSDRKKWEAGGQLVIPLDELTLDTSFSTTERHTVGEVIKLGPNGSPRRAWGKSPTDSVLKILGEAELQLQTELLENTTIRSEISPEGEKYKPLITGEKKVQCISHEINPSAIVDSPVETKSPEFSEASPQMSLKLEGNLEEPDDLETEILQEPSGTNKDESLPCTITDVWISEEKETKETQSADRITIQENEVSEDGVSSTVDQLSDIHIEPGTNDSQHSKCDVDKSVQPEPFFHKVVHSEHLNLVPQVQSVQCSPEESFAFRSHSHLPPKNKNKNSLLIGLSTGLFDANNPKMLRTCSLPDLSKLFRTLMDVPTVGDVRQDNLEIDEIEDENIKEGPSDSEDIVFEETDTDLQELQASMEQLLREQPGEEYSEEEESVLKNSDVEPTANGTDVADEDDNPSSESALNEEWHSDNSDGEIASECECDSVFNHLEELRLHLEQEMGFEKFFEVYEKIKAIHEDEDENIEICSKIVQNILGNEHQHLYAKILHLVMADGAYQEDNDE
Test: Inhibition of NEK1 (unknown origin)

With `CN(C)[C@H]1CC[C@@]2(C)C(=CC[C@H]3[C@@H]4CC[C@H](c5ccc6ccncc6c5)[C@@]4(C)CC[C@@H]32)C1` the IC50 was > 10000 nM.

Target: T2, Cyclin-dependent kinase 8 (Homo sapiens, UniProt P49336)
T2 sequence (P49336 whole entry): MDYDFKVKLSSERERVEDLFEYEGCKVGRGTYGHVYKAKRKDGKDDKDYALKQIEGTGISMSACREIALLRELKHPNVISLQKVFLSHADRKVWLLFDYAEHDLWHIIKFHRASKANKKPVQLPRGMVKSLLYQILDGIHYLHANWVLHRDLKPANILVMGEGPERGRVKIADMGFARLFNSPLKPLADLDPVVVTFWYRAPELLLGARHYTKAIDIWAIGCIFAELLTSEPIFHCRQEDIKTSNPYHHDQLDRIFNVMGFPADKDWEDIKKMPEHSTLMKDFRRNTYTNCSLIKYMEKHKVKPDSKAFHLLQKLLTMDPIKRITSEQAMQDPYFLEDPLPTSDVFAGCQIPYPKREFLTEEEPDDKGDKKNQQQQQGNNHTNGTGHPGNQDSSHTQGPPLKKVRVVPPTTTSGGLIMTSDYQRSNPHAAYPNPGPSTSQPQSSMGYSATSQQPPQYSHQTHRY
Test: Inhibition of CDK8 (unknown origin) by competitive kinase binding based Lantha-screen Eu kinase binding assay

Going from `CN[C@H]1CC[C@@]2(C)[C@@H](CC[C@@H]3[C@@H]2CC[C@]2(C)[C@@H](c4ccc5ccncc5c4)CC[C@@H]32)C1` to `C[C@]12CC[C@H](O)C[C@@H]1CC[C@@H]1[C@@H]2CC[C@]2(C)[C@@H](c3ccc4ccncc4c3)CC[C@@H]12`, the IC50 falls from 701 nM to 201 nM (3.5-fold). The second is the more potent here.

Compared with `C[C@]12CC[C@H](O)CC1=CC[C@@H]1[C@@H]2CC[C@]2(C)C(c3ccc4cnccc4c3)=CC[C@@H]12`, `C[C@]12CC[C@H](O)CC1=CC[C@@H]1[C@@H]2CC[C@]2(C)C(c3ccc4ccncc4c3)=CC[C@@H]12` is lower in IC50: ≥ 6000 nM for the first, 101 nM for the second.

Compared with `C[C@]12CC[C@H]3[C@@H](CC=C4C[C@@H](O)CC[C@@]43C)[C@@H]1CC[C@@H]2c1ccc2cnccc2c1`, `C[C@]12CC[C@H]3[C@@H](CC=C4C[C@@H](O)CC[C@@]43C)[C@@H]1CC[C@@H]2c1ccc2ccncc2c1` is lower in IC50: 2000 nM for the first, ≤ 100 nM for the second.

Going from `C[C@]12CC[C@H]3[C@@H](CC=C4C[C@@H](O)CC[C@@]43C)[C@@H]1CC[C@@H]2c1ccc2nc(N)ncc2c1` to `C[C@]12CC[C@H]3[C@@H](CC=C4C[C@@H](O)CC[C@@]43C)[C@@H]1CC[C@@H]2c1ccc2cnncc2c1`, the IC50 rises from 101 nM to ≥ 6000 nM.

`C[C@]12CC[C@H](O)CC1=CC[C@@H]1[C@@H]2CC[C@]2(C)C(c3ccc4[nH]ncc4c3)=CC[C@@H]12` and `C[C@]12CC[C@H](O)CC1=CC[C@@H]1[C@@H]2CC[C@]2(C)C(c3ccc4cn[nH]c4c3)=CC[C@@H]12` cannot be ordered by IC50: ≥ 6000 nM for the first, ≥ 6000 nM for the second.

Compared with `C[C@]12CC[C@H]3[C@@H](CC=C4C[C@@H](O)CC[C@@]43C)[C@@H]1CC[C@@H]2c1ccc2c(N)n[nH]c2c1`, `C[C@]12CC[C@H]3[C@@H](CC=C4C[C@@H](O)CC[C@@]43C)[C@@H]1CC[C@@H]2c1ccc2cn[nH]c2c1` is higher in IC50: 301 nM for the first, ≥ 6000 nM for the second.

`C[C@]12CC[C@H](n3ccnn3)C[C@@H]1CC[C@@H]1[C@@H]2CC[C@]2(C)[C@@H](c3ccc4ccncc4c3)CC[C@@H]12` and `CN(C)[C@H]1CC[C@@]2(C)[C@@H](CC[C@@H]3[C@@H]2CC[C@]2(C)[C@@H](c4ccc5ccncc5c4)CC[C@@H]32)C1` cannot be ordered by IC50: ≤ 100 nM for the first, ≤ 100 nM for the second.

`CC(=O)N(C)[C@H]1CC[C@@]2(C)[C@@H](CC[C@@H]3[C@@H]2CC[C@]2(C)[C@@H](c4ccc5ccncc5c4)CC[C@@H]32)C1` and `CN(C)[C@@H]1CC[C@@]2(C)[C@@H](CC[C@@H]3[C@@H]2CC[C@]2(C)[C@@H](c4ccc5ccncc5c4)CC[C@@H]32)C1` cannot be ordered by IC50: ≤ 100 nM for the first, ≤ 100 nM for the second.

First: C[C@]12CC[C@H](O)CC1=CC[C@@H]1[C@@H]2CC[C@]2(C)C(c3ccc4c(N)n[nH]c4c3)=CC[C@@H]12
Second: C[C@]12CC[C@H](O)CC1=CC[C@@H]1[C@@H]2CC[C@]2(C)C(c3ccc4nc(N)ncc4c3)=CC[C@@H]12
The IC50 of the first is 2.9-fold lower: 701 nM for the first, 2000 nM for the second. The first is the more potent here.

Compared with `CN(C)[C@H]1CC[C@@]2(C)[C@@H](CC[C@@H]3[C@@H]2CC[C@]2(C)C(c4ccc5ccncc5c4)=CC[C@@H]32)C1`, `CN(C)[C@@H]1CC[C@@]2(C)[C@@H](CC[C@@H]3[C@@H]2CC[C@]2(C)C(c4ccc5ccncc5c4)=CC[C@@H]32)C1` is 2-fold higher in IC50: 101 nM for the first, 201 nM for the second. The first is the more potent here.

Compared with `C[C@]12CC[C@H](N3CCOCC3)C[C@@H]1CC[C@@H]1[C@@H]2CC[C@]2(C)[C@@H](c3ccc4ccncc4c3)CC[C@@H]12`, `CN(C)[C@H]1CC[C@@]2(C)C(=CC[C@H]3[C@@H]4CC[C@H](c5ccc6ccncc6c5)[C@@]4(C)CC[C@@H]32)C1` is lower in IC50: 101 nM for the first, ≤ 100 nM for the second. The second is the more potent here.

Going from `C[C@]12CC[C@H](O)CC1=CC[C@@H]1[C@@H]2CC[C@]2(C)C(c3ccc4cnncc4c3)=CC[C@@H]12` to `C[C@]12CC[C@H](O)C[C@@H]1CC[C@@H]1[C@@H]2CC[C@]2(C)C(c3ccc4ccncc4c3)=CC[C@@H]12`, the IC50 falls from ≥ 6000 nM to 701 nM. The second is the more potent here.

`C[C@]12CC[C@H]3[C@@H](CC=C4C[C@@H](O)CC[C@@]43C)[C@@H]1CC[C@@H]2c1ccc2[nH]ncc2c1` was tested, and the IC50 was ≥ 6000 nM.

Target: T2, Cyclin-dependent kinase 8
Test: Inhibition of CDK8 in human HepG2 cells assessed as reduction in IFNgamma-induced STATl S727 phosphorylation incubated for 18 hrs by Western blot analysis
Assay type: cell-based

For `CN(C)[C@H]1CC[C@@]2(C)C(=CC[C@H]3[C@@H]4CC[C@H](c5ccc6ccncc6c5)[C@@]4(C)CC[C@@H]32)C1`, the inhibition was “Dose-dependent effect”.

Reference: ChEMBL document CHEMBL4742401, “Cyclin-dependent kinase inhibitors and methods of use” (2019)
